Reference: patent publication US20250019520A1, “RELIEF PRECURSORS WITH ENHANCED STABILITY” (XSYS Germany GmbH, priority 2023, published 2025)

What was measured:
[1] = Thermal melt stability: onset time of crosslinking, SIS-rubber based formulation; type: physicochemical
Description: The thermal melt stability was assessed by recording the melt viscosity during heating. Crosslinking of the sample was recorded as an increase in viscosity. Oscillatory rheological measurements were carried out using a Kinexus lab+rheometer (Malvern Instruments Ltd., UK) under isothermal (T=160° C.) conditions. Data was recorded using the corresponding software rSPACE version 1.76 (Malvern Instruments Ltd., UK). As measurement geometry, parallel plates with a diameter of 2.5 cm of the upper plate were chosen. As sample, a disc of a relief precursor with a diameter of 2.5 cm was used. Prior to measurement, any foils (e.g. the cover sheet) and mask layers were removed from the relief precursor. Measurements were carried out in oscillation single frequency mode. The frequency was set to 1 Hz. The gap between the parallel plates was set constant to the respective sample thickness. Data points were recorded every 15 s. The complex shear viscosity η* was monitored over time t. The “onset time of crosslinking” was identified as “the time when the difference quotient Δη*/Δt is ≥1 Pa, with Δt=15 s”. A higher onset time indicates a higher thermal stability and stability towards mechanical stress.
In this example, another trial formulation based on a SIS tri-block copolymer was used. […]

[2] = Kneading trials at 180° C., onset of crosslinking seen as increase in torque; type: physicochemical; settings: kneading at 180° C. for 60 min, SBS binder plus stabilizer
Description: Kneading trials were carried out using a ThermoFisher Scientifc Haake kneading device equipped with a Haake PolyLab OS RheoDrive 7 control unit, a Haake Rheomix 600 OS heating and kneading chamber with Roller Rotors R600. The torque and the sample temperature were recorded using the software PolySoft, version 2.1.0.1. For the measurement, a temperature of 180° C. was applied. The measurement was carried out for 60 min, respectively. The components were added to the kneading device as solids and were allowed to be mixed in the kneading device.
In the given sample, the amount of stabilizer was varied in the range of 0 to 1.0 parts by weight and the excess was counterbalanced by the amount of binder, respectively.
An increase in torque indicated the onset of crosslinking of the SBS-rubber due to insufficient stabilization. Without additional stabilizer, an increase in torque was observed within the first 10 min of measurement time. With BHT as stabilizer, an increase in torque was detected after 28 min of heating at 180° C. With ascorbyl palmitate, the best result was achieved, where crosslinking was observed after 50 min.

[3] = Printing plate evaluation: halftone and tonal values at 146 lpi; settings: difference of tonal value of 5% halftone at 146 lpi versus plate without additional stabilizer
Description: To obtain a cliché, the laser ablatable mask on the front side was imaged using a TfxX 20 laser (Flint Group Germany GmbH, Germany, rotational speed: 10 to 11 rounds/s, power: 35 W (100% intensity)). The relief precursor was exposed to UV light from the backside through the carrier foil for 20 to 40 s and from the front side through the mask layer for 15 min. During the exposure at room temperature (being around 18-25° C.), no active heating was present. As a result of the crosslinking reaction due to the exposure, the temperature of the plate rose to around 40° C. (machine type: Combi FIII (Flint Group Germany GmbH, Germany), UVA intensity […], UVA tube type: Philips TL 80 W/10-R). […]
In this example, the effect of the stabilizer on the tonal values of the resulting printing plates was assessed since conventional stabilizers can impact tonal values as they may hinder curing. […] The stabilizer impact on the tonal value was calculated as the difference of the tonal value of the 5% halftone at 146 lpi of a plate without any additional stabilizer compared to the respective tonal value of a plate comprising a stabilizer.

## CCCCCCCCCCCCCCCC(=O)OC[C@H](O)[C@H]1OC(=O)C(O)=C1O [Ascorbyl palmitate]
[1]
  Effect on the onset time of crosslinking compared with an equimolar amount of BHT: more than five times as high
[2]
  Onset time t/min: 50 min
[3]
  Stabilizer impact on tonal value: 0.8%
